Laboratory results from patent US20210269434A1, “TRICYCLIC COMPOUNDS AS INHIBITORS OF KRAS” (Incyte Corporation, priority 2020, published 2021).

Columns and labels:
[1] = molecular target: KRAS G12C (Homo sapiens, UniProt P01116, G12C); assay: GDP-GTP exchange assay (KRAS_G12C exchange); format: biochemical; settings: bodipy-GDP loaded KRAS G12C 2.5 nM, SOS1 150 nM, GppNHp; 2 hours pre-incubation, 2 hours reaction; read-out: G12C_exchange
Summary of the method: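 Fluorescence exchange of bodipy-GDP for GppNHp, SOS1-driven, read at 485/520 nm; IC50 from four-parameter variable-slope fit. Both mutants used 2.5 nM final labelled protein and a 2 h compound pre-incubation. G12C reaction had 500 uM GppNHp and 150 nM SOS1 for 2 h; G12D ran 4 h.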

[2] = tested on: MIA PaCa-2 (KRAS G12C) cells; assay: Cellular pERK HTRF assay (KRAS_G12C pERK); format: cell-based, human; settings: Homo sapiens, MIA PaCa-2, 4 hours incubation, read-out: G12C_pERK
Summary of the method: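 Phospho-ERK1/2 HTRF readout (665 and 620 nm) in lysed MIA PaCa-2 cells, antibodies incubated overnight at room temperature. Cells seeded the day before and treated with G12C compounds for 4 h at 37 °C; IC50 fitted to percent inhibition against log inhibitor concentration.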

Sequence of KRAS G12C (P01116 1-188 isoform P01116-2 G12C): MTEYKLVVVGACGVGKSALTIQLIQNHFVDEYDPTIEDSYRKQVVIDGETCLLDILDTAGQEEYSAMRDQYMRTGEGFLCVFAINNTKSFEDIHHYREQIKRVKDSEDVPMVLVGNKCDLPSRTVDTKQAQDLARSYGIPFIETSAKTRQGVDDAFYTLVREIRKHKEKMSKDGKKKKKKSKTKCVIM

Structure (SMILES)	IC50 [1]	IC50 [2]
C=CC(=O)N1CC[C@H](n2nnc3c(N4CCOCC4=O)nc4c(F)c(-c5cccc(C)c5Cl)c(C)cc4c32)C[C@H]1CC#N [Example 259, 2-((2S,4S)-1-acryloyl-4-(7-(2-chloro-3-methylphenyl)-6-fluoro-8-methyl-4-(3-oxomorpholino)-1H-[1,2,3]triazolo[4,5-c]quinolin-1-yl)piperidin-2-yl)acetonitrile]	≤ 100 nM	≤ 100 nM
CC#CC(=O)N1CC[C@H](n2nnc3c(N4CCOCC4=O)nc4c(F)c(-c5cccc(C)c5Cl)c(C)cc4c32)C[C@H]1CC#N [Example 260, 2-((2S,4S)-1-(but-2-ynoyl)-4-(7-(2-chloro-3-methylphenyl)-6-fluoro-8-methyl-4-(3-oxomorpholino)-1H-[1,2,3]triazolo[4,5-c]quinolin-1-yl)piperidin-2-yl)acetonitrile]	≤ 100 nM	≤ 100 nM
Cc1cccc(-c2c(C)cc3c(nc(N4CCOCC4=O)c4nnn([C@H]5CCN(C(=O)/C=C/CF)[C@H](CC#N)C5)c43)c2F)c1Cl [Example 261, 2-((2S,4S)-4-(7-(2-chloro-3-methylphenyl)-6-fluoro-8-methyl-4-(3-oxomorpholino)-1H-[1,2,3]triazolo[4,5-c]quinolin-1-yl)-1-((E)-4-fluorobut-2-enoyl)piperidin-2-yl)acetonitrile]	≤ 100 nM	≤ 100 nM
C=CC(=O)N1CC[C@H](n2cnc3c(N4CC(N(C)C)C4)nc4c(F)c(-c5c(C)c(F)cc6[nH]ncc56)c(Cl)cc4c32)C[C@H]1CC#N [Example 266a, 2-((2S,4S)-1-acryloyl-4-(8-chloro-4-(3-(dimethylamino)azetidin-1-yl)-6-fluoro-7-(6-fluoro-5-methyl-1H-indazol-4-yl)-1H-imidazo[4,5-c]quinolin-1-yl)piperidin-2-yl)acetonitrile]	≤ 100 nM	≤ 100 nM
C=CC(=O)N1CC[C@H](n2nnc3c(N4CC(N(C)C)C4)nc4c(Cl)c(-c5cccc(Cl)c5C)c(Cl)cc4c32)C[C@H]1CC#N [Example 273, 2-((2S,4S)-1-acryloyl-4-(6,8-dichloro-7-(3-chloro-2-methylphenyl)-4-(3-(dimethylamino)azetidin-1-yl)-1H-[1,2,3]triazolo[4,5-c]quinolin-1-yl)piperidin-2-yl)acetonitrile]	≤ 100 nM	≤ 100 nM
CC#CC(=O)N1CC[C@H](n2nnc3c(OC[C@@H]4CCCN4C)nc4c(Cl)c(-c5cccc(Cl)c5Cl)c(Cl)cc4c32)C[C@H]1CC#N [Example 278, 2-((2S,4S)-1-(but-2-ynoyl)-4-(6,8-dichloro-7-(2,3-dichlorophenyl)-4-(((S)-1-methylpyrrolidin-2-yl)methoxy)-1H-[1,2,3]triazolo[4,5-c]quinolin-1-yl)piperidin-2-yl)acetonitrile]	≤ 100 nM	≤ 100 nM
C=CC(=O)N1CC[C@H](n2nnc3c(N4CC(N(C)C)C4)nc4c(Cl)c(-c5cccc(Cl)c5Cl)c(Cl)cc4c32)C[C@H]1CC#N [Example 281, 2-((2S,4S)-1-acryloyl-4-(6,8-dichloro-7-(2,3-dichlorophenyl)-4-(3-(dimethylamino)azetidin-1-yl)-1H-[1,2,3]triazolo[4,5-c]quinolin-1-yl)piperidin-2-yl)acetonitrile]	≤ 100 nM	≤ 100 nM
C=CC(=O)N1CC[C@H](n2nnc3c(N4CC(N(C)C)C4)nc4c(Cl)c(-c5cccc(C)c5Cl)c(Cl)cc4c32)C[C@H]1CC#N [Example 282, 2-((2S,4S)-1-acryloyl-4-(6,8-dichloro-7-(2-chloro-3-methylphenyl)-4-(3-(dimethylamino)azetidin-1-yl)-1H-[1,2,3]triazolo[4,5-c]quinolin-1-yl)piperidin-2-yl)acetonitrile]	≤ 100 nM	≤ 100 nM
C=CC(=O)N1CC[C@H](n2nnc3c(OC[C@@H]4CCCN4C)nc4c(Cl)c(-c5cccc(Cl)c5Cl)c(Cl)cc4c32)C[C@H]1CC#N [Example 285, 2-((2S,4S)-1-acryloyl-4-(6,8-dichloro-7-(2,3-dichlorophenyl)-4-(((S)-1-methylpyrrolidin-2-yl)methoxy)-1H-[1,2,3]triazolo[4,5-c]quinolin-1-yl)piperidin-2-yl)acetonitrile]	≤ 100 nM	≤ 100 nM
C=CC(=O)N1CC[C@H](n2nnc3c(OC[C@@H]4CCCN4C)nc4c(Cl)c(-c5cccc(C)c5Cl)c(Cl)cc4c32)C[C@H]1CC#N [Example 286, 2-((2S,4S)-1-acryloyl-4-(6,8-dichloro-7-(2-chloro-3-methylphenyl)-4-(((S)-1-methylpyrrolidin-2-yl)methoxy)-1H-[1,2,3]triazolo[4,5-c]quinolin-1-yl)piperidin-2-yl)acetonitrile]	≤ 100 nM	≤ 100 nM
C=CC(=O)N1CC[C@H](n2nnc3c(OC[C@@H]4CCCN4C)nc4c(Cl)c(-c5cccc(Cl)c5C)c(Cl)cc4c32)C[C@H]1CC#N [Example 287, 2-((2S,4S)-1-acryloyl-4-(6,8-dichloro-7-(3-chloro-2-methylphenyl)-4-(((S)-1-methylpyrrolidin-2-yl)methoxy)-1H-[1,2,3]triazolo[4,5-c]quinolin-1-yl)piperidin-2-yl)acetonitrile]	≤ 100 nM	≤ 100 nM
C=CC(=O)N1CC[C@H](n2nnc3c(N4CC(N(C)C)C4)nc4c(Cl)c(-c5cccc(Cl)c5OC)c(Cl)cc4c32)C[C@H]1CC#N [Example 290, 2-((2S,4S)-1-acryloyl-4-(6,8-dichloro-7-(3-chloro-2-methoxyphenyl)-4-(3-(dimethylamino)azetidin-1-yl)-1H-[1,2,3]triazolo[4,5-c]quinolin-1-yl)piperidin-2-yl)acetonitrile]	≤ 100 nM	≤ 100 nM

Results, then the compound that gave them:

IC50 [1]	IC50 [2]	Structure (SMILES)
≤ 100 nM	≤ 100 nM	Cc1cccc(-c2c(Cl)cc3c(nc(N4CC(N(C)C)C4)c4ncn([C@H]5CCN(C(=O)/C=C/CN(C)C)[C@H](CC#N)C5)c43)c2F)c1C(F)(F)F [Example 262, 2-((2S,4S)-4-(8-chloro-4-(3-(dimethylamino)azetidin-1-yl)-6-fluoro-7-(3-methyl-2-(trifluoromethyl)phenyl)-1H-imidazo[4,5-c]quinolin-1-yl)-1-((E)-4-(dimethylamino)but-2-enoyl)piperidin-2-yl)acetonitrile]
≤ 100 nM	≤ 100 nM	CC#CC(=O)N1CC[C@H](n2cnc3c(N4CC(N(C)C)C4)nc4c(F)c(-c5cccc(C)c5C(F)(F)F)c(Cl)cc4c32)C[C@H]1CC#N [Example 263, 2-((2S,4S)-1-(but-2-ynoyl)-4-(8-chloro-4-(3-(dimethylamino)azetidin-1-yl)-6-fluoro-7-(3-methyl-2-(trifluoromethyl)phenyl)-1H-imidazo[4,5-c]quinolin-1-yl)piperidin-2-yl)acetonitrile]
≤ 100 nM	≤ 100 nM	C=CC(=O)N1CC[C@H](n2cnc3c(N4CC(N(C)C)C4)nc4c(F)c(-c5cccc(C)c5C(F)(F)F)c(Cl)cc4c32)C[C@H]1CC#N [Example 264, 2-((2S,4S)-1-acryloyl-4-(8-chloro-4-(3-(dimethylamino)azetidin-1-yl)-6-fluoro-7-(3-methyl-2-(trifluoromethyl)phenyl)-1H-imidazo[4,5-c]quinolin-1-yl)piperidin-2-yl)acetonitrile]
≤ 100 nM	≤ 100 nM	C=CC(=O)N1CC[C@H](n2cnc3c(N4CC(N(C)C)C4)nc4c(F)c(-c5cccc6cccc(Cl)c56)c(Cl)cc4c32)C[C@H]1CC#N [Example 265, 2-((2S,4S)-1-acryloyl-4-(8-chloro-7-(8-chloronaphthalen-1-yl)-4-(3-(dimethylamino)azetidin-1-yl)-6-fluoro-1H-imidazo[4,5-c]quinolin-1-yl)piperidin-2-yl)acetonitrile]
≤ 100 nM	≤ 100 nM	C=CC(=O)N1CC[C@H](n2cnc3c(N4CC(N(C)C)C4)nc4c(F)c(-c5cnc(C)c6ccccc56)c(Cl)cc4c32)C[C@H]1CC#N [Example 268a, 2-((2S,4S)-1-acryloyl-4-(8-chloro-4-(3-(dimethylamino)azetidin-1-yl)-6-fluoro-7-(1-methylisoquinolin-4-yl)-1H-imidazo[4,5-c]quinolin-1-yl)piperidin-2-yl)acetonitrile]
≤ 100 nM	≤ 100 nM	C=CC(=O)N1CC[C@H](n2cnc3c(N4CC(N(C)C)C4)nc4c(F)c(-c5c(C)ncc6ccccc56)c(Cl)cc4c32)C[C@H]1CC#N [Example 269a, 2-((2S,4S)-1-acryloyl-4-(8-chloro-4-(3-(dimethylamino)azetidin-1-yl)-6-fluoro-7-(3-methylisoquinolin-4-yl)-1H-imidazo[4,5-c]quinolin-1-yl)piperidin-2-yl)acetonitrile]
≤ 100 nM	≤ 100 nM	CC#CC(=O)N1CC[C@H](n2nnc3c(N4CC(N(C)C)C4)nc4c(Cl)c(-c5ccc(F)c6cccnc56)c(Cl)cc4c32)C[C@H]1CC#N [Example 274a, 2-((2S,4S)-1-(but-2-ynoyl)-4-(6,8-dichloro-4-(3-(dimethylamino)azetidin-1-yl)-7-(5-fluoroquinolin-8-yl)-1H-[1,2,3]triazolo[4,5-c]quinolin-1-yl)piperidin-2-yl)acetonitrile]
